From patent US10144715B2, “Piperazine derivatives as liver X receptor modulators” (priority 2014, dated 2018)
Like-named read-outs stand apart in the source and are kept apart here.

What was measured:
[1] = biological target: Gal4 DNA binding domain fused to the LBD of LXRα in HEK293 cells (Homo sapiens (Human), UniProt Q13133); assay: LXR luciferase transcriptional reporter gene assay, agonist mode, LXRα; format: cell-based; conditions: for EC50: read-out: Cell LXRα EC50
[2] = biological target: Gal4 DNA binding domain fused to the LBD of LXRβ in HEK293 cells (Homo sapiens (Human), UniProt P55055); assay: cell-based
Sequence of Gal4 DNA binding domain fused to the LBD of LXRβ in HEK293 cells (P55055 222-460 limits assumed): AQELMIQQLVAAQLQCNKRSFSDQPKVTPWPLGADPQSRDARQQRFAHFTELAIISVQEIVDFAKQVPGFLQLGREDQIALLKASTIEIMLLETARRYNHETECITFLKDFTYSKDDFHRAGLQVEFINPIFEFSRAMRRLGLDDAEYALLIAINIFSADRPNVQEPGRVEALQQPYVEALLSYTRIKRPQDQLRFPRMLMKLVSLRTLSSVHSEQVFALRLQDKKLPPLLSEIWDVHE

LXR β LBD protein = LXR β LBD protein (Homo sapiens (Human), UniProt P55055); assay: biochemical; format: binding
Sequence of LXR β LBD protein (P55055 222-460 limits assumed): as above

LXR α LBD protein = LXR α LBD protein (Homo sapiens (Human), UniProt Q13133); assay: LXR α radioligand binding assay (SPA, competition with [3H]TO901317); conditions: read-out: LXRα Binding Ki
Sequence of LXR α LBD protein (Q13133 209-447): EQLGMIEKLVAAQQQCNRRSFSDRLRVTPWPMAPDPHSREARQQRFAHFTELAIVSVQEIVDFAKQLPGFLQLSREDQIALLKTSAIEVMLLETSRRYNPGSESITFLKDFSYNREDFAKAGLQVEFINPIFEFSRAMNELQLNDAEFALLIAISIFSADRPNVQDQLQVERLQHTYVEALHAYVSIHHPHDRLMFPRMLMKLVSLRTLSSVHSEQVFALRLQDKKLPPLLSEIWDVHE

[3] = Biological Test Example 2, agonist mode
[4] = Biological Test Example 2, agonist mode, read-out: Cell LXRβ EC50
[5] = Biological Test Example 1, read-out: LXRβ Binding Ki

Sequence of Gal4 DNA binding domain fused to the LBD of LXRα in HEK293 cells (Q13133 209-447): as above

SMILES	Cell LXRα efficacy [1]	EC50 [1] [nM]	EC50 [2] [nM]	Cell LXRβ efficacy ([2]; agonist mode)	Ki (LXR β LBD protein; read-out: LXRβ Binding Ki) [nM]	Ki (LXR α LBD protein) [nM]	Ki (LXR β LBD protein) [nM]	EC50 ([2]; agonist mode, read-out: Cell LXRβ EC50) [nM]	EC50 ([1]; agonist mode) [nM]	Cell LXRβ efficacy [2]	Cell LXRβ efficacy [2, 3] [%]	EC50 [2, 4] [nM]	Ki (LXR β LBD protein; [5]) [nM]
CC(C)[C@@H]1CN(c2ccc(F)c(S(C)(=O)=O)c2)CCN1c1nc(C(F)(F)F)c(C(C)(C)O)o1 [10-8, (R)-2-(2-(4-(4-fluoro-3-(methylsulfonyl)phenyl)-2-isopropylpiperazin-1-yl)-4-(trifluoromethyl)oxazol-5-yl)propan-2-ol]	4655 (96) %	4660	901	901 (76) %	132	2190	–	–	–	–	–	–	–
CC(C)[C@@H]1CN(c2ccc(F)c(S(C)(=O)=O)c2)CCN1c1ncc([C@H](C)O)c(C(F)(F)F)n1 [Cpd No 12-2, (S)-1-(2-((R)-4-(4-fluoro-3-(methylsulfonyl)phenyl)-2-isopropylpiperazin-1-yl)-4-(trifluoromethyl)pyrimidin-5-yl)ethan-1-ol]	746 (41) %	746	117	117 (36) %	–	233	11	–	–	–	–	–	–
CC(C)(F)CC1CN(c2ccc(F)c(S(C)(=O)=O)c2)CCN1c1ccc(C(F)(F)F)cn1 (stereo not drawn) [35-1, 2-(2-fluoro-2-methylpropyl)-4-(4-fluoro-3-(methylsulfonyl)phenyl)-1-(5-(trifluoromethyl)pyridin-2-yl)piperazine]	1522 (97) %	1520	499	499 (88) %	38	272	–	–	–	–	–	–	–
NS(=O)(=O)c1cccc(N2CCN(C[C@H]3CC[C@H](C(F)F)CC3)[C@H](c3ccccc3)C2)c1 (single isomer, unassigned) [48-20]	–	> 20000	–	6%	1550	4670	–	2270	–	–	–	–	–
CC(C)[C@H]1CN(c2ccc(C#N)c(S(C)(=O)=O)c2)CCN1Cc1ccc(C(F)(F)F)cc1 [46-9, (S)-4-(3-isopropyl-4-(4-(trifluoromethyl)benzyl)piperazin-1-yl)-2-(methylsulfonyl)benzonitrile]	2479 (57) %	–	1080	1078 (49) %	231	> 3330	–	–	2480	–	–	–	–
COC(=O)c1ccnc(N2CCN(c3ccc(F)c(S(C)(=O)=O)c3)C[C@H]2C(C)C)n1 [7-15, methyl (R)-2-(4-(4-fluoro-3-(methylsulfonyl)phenyl)-2-isopropylpiperazin-1-yl)pyrimidine-4-carboxylate]	1102 (85) %	1100	213	–	20	213	–	–	–	213 (65) %	–	–	–
CC(C)[C@@H]1CN(c2ccc(F)c(S(C)(=O)=O)c2)CCN1c1nc2c(F)cccc2s1 [7-54, (R)-4-fluoro-2-(4-(4-fluoro-3-(methylsulfonyl)phenyl)-2-isopropylpiperazin-1-yl)benzo[d]thiazole]	371 (95) %	371	77	–	9	68	–	–	–	77 (80) %	–	–	–
COCCCN(C)C(=O)c1cnc(N2CCN(c3ccc(F)c(S(C)(=O)=O)c3)C[C@H]2C(C)C)nc1C(F)(F)F [17-13, (R)-2-(4-(4-fluoro-3-(methylsulfonyl)phenyl)-2-isopropylpiperazin-1-yl)-N-(3-methoxypropyl)-N-methyl-4-(trifluoromethyl)pyrimidine-5-carboxamide]	–	–	> 20000	–	253	2880	–	–	> 20000	–	–	–	–
CC(C)[C@@H]1CN(c2cc(S(C)(=O)=O)c(CO)cc2F)CCN1c1ncc(C(N)=O)c(C(F)(F)F)n1 [17-29, (R)-2-(4-(2-fluoro-4-(hydroxymethyl)-5-(methylsulfonyl)phenyl)-2-isopropylpiperazin-1-yl)-4-(trifluoromethyl)pyrimidine-5-carboxamide]	1950 (15) %	–	142	142 (17) %	191	1270	–	–	1950	–	–	–	–
CC(C)(O)[C@H]1CCC[C@@H](CN2CCN(c3cccc(S(C)(=O)=O)c3)CC2c2ccccc2)C1 (stereo partly drawn) [48-25, 2-((1S,3R)-3-((4-(3-(methylsulfonyl)phenyl)-2-phenylpiperazin-1-yl)methyl)cyclohexyl)propan-2-ol]	–	> 20000	> 20000	–	–	1240	178	–	–	–	–	–	–
CC(C)[C@H]1CN(c2cccc(S(C)(=O)=O)c2)CCN1CC1CCCOC1 (stereo partly drawn) [Cpd No 51-1, (2S)-2-isopropyl-4-(3-(methylsulfonyl)phenyl)-1-((tetrahydro-2H-pyran-3-yl)methyl)piperazine]	7863 (36) %	7860	673	–	1530	> 3330	–	–	–	673 (32) %	–	–	–
CS(=O)(=O)c1cc(N2CCN(c3ncc(CO)c(C(F)(F)F)n3)[C@H](c3ccc(F)cc3)C2)ccc1F [11-7, (R)-(2-(4-(4-fluoro-3-(methylsulfonyl)phenyl)-2-(4-fluorophenyl)piperazin-1-yl)-4-(trifluoromethyl)pyrimidin-5-yl)methanol]	2240 (13) %	–	315	315 (14) %	85	1160	–	–	2240	–	–	–	–
CC(C)[C@@H]1CN(c2ccc(F)c(S(C)(=O)=O)c2)CCN1c1ncc(C(=O)N(C)CCO)c(C(F)(F)F)n1 [17-7, (R)-2-(4-(4-fluoro-3-(methylsulfonyl)phenyl)-2-isopropylpiperazin-1-yl)-N-(2-hydroxyethyl)-N-methyl-4-(trifluoromethyl)pyrimidine-5-carboxamide]	–	> 20000	> 20000	–	–	> 3330	507	–	–	–	–	–	–
CC(C)[C@@H]1CN(c2ccc(F)c(S(C)(=O)=O)c2)CCN1c1ncc([C@@H](C)O)c(C(F)(F)F)n1 [Cpd No 12-3, (R)-1-(2-((R)-4-(4-fluoro-3-(methylsulfonyl)phenyl)-2-isopropylpiperazin-1-yl)-4-(trifluoromethyl)pyrimidin-5-yl)ethan-1-ol]	769 (43) %	769	84	84 (29) %	–	168	6	–	–	–	–	–	–
Cc1nc(N2CCN(c3ccc(F)c(S(C)(=O)=O)c3)C[C@H]2C(C)C)ncc1C(N)=O [17-24, (R)-2-(4-(4-fluoro-3-(methylsulfonyl)phenyl)-2-isopropylpiperazin-1-yl)-4-methylpyrimidine-5-carboxamide]	–	–	> 20000	–	611	> 3330	–	–	> 20000	–	–	–	–
CC(C)[C@H]1CC[C@H](CN2CCN(c3ccc(CO)c(S(C)(=O)=O)c3)C[C@H]2c2ccccc2)CC1 (single isomer, unassigned) [48-78]	10997 (14) %	11000	–	–	–	30700	–	–	–	–	10	8340	2460
COCc1ccc(N2CCN(C[C@H]3CC[C@H](C(F)(F)F)CC3)[C@@H](c3ccccc3)C2)cc1S(C)(=O)=O [48-49, (S)-4-(4-(methoxymethyl)-3-(methylsulfonyl)phenyl)-2-phenyl-1-(((1r,4S)-4-(trifluoromethyl)cyclohexyl)methyl)piperazine]	9842 (9) %	9840	–	–	–	13800	–	–	–	–	12	1350	1490
